Data: ChEMBL document CHEMBL3997825, “Discovery of 2-oxopiperazine dengue inhibitors by scaffold morphing of a phenotypic high-throughput screening hit” (Bioorg Med Chem Lett, 2017)
≈ marks a conversion by molar mass, not a printed value.

How the values were obtained:
dengue virus type 3 [1] = test: Antiviral activity against DENV3 MY05-34640 infected in human A549 cells assessed as decrease in envelope protein production after 48 hrs by immunodetection method; assay type: functional, cell-based; conditions: MY05-34640, A549, 48 h
[2] = Cytotoxicity against human HepG2 cells; assay type: cell-based
dengue virus type 4 [3] = test: Antiviral activity against DENV4 MY01-22713 infected in human A549 cells assessed as decrease in envelope protein production after 48 hrs by immunodetection method; assay type: functional, cell-based; conditions: MY01-22713, A549, 48 h
dengue virus type 1 [4] = test: Antiviral activity against DENV1 MY97-10245 infected in human A549 cells assessed as decrease in envelope protein production after 48 hrs by immunodetection method; assay type: functional, cell-based; conditions: MY97-10245, A549, 48 h
dengue virus type 2 [5] = test: Antiviral activity against DENV2 MY97-10340 infected in human A549 cells assessed as decrease in envelope protein production after 48 hrs by immunodetection method; assay type: functional, cell-based; conditions: MY97-10340, A549, 48 h
[6] = Intrinsic clearance in human liver microsomes; assay type: ADME, microsome; conditions: read-out: CLH
[7] = Lipophilicity, log D of the compound at pH 7.4; assay type: physicochemical; conditions: buffer
[8] = Solubility of the compound at pH 6.8; assay type: physicochemical; conditions: buffer
dengue virus type 2 [9] = test: Antiviral activity against DENV2 TSVO1 infected in C6/36 cells assessed as reduction in viral titer after 72 hrs by plaque assay; assay type: functional, cell-based; conditions: TSVO1, C6/36, 72 h
dengue virus type 3 [10] = test: Antiviral activity against DENV3 H87 infected in BHK21 cells assessed as reduction in viral titer after 72 hrs by plaque assay; assay type: functional, cell-based; conditions: H87, BHK-21, 72 h
dengue virus type 1 [11] = test: Antiviral activity against DENV1 West Pacific infected in BHK21 cells assessed as reduction in viral titer after 48 hrs by plaque assay; assay type: functional, cell-based; conditions: BHK-21, 48 h
dengue virus type 2 [12] = test: Antiviral activity against DENV2 New Guinea C infected in human A549 cells assessed as reduction in viral titer after 48 hrs by plaque assay; assay type: functional, cell-based; conditions: Thailand/NGS-C/1944, A549, 48 h
dengue virus type 4 [13] = test: Antiviral activity against DENV4 H241 infected in BHK21 cells assessed as reduction in viral titer after 72 hrs by plaque assay; assay type: functional, cell-based; conditions: H241, BHK-21, 72 h

| SMILES | EC50 (dengue virus type 3 [1]) [nM] | EC50 (dengue virus type 4 [3]) [nM] | EC50 (dengue virus type 1 [4]) [nM] | EC50 (dengue virus type 2 [5]) [nM] | microsomal CLint [6] [µL/min/mg] | logD [7] | solubility [8] [µM] | CC50 [2] [nM] | EC50 (dengue virus type 2 [9]) [nM] | EC50 (dengue virus type 3 [10]) [nM] | EC50 (dengue virus type 1 [11]) [nM] | EC50 (dengue virus type 2 [12]) [nM] | EC50 (dengue virus type 4 [13]) [nM] |
| --- | --- | --- | --- | --- | --- | --- | --- | --- | --- | --- | --- | --- | --- |
| CSc1cccc(N2C(=O)CN(c3ccc(C(F)(F)F)cc3)CC2C(=O)NC2CCCC2)c1 (stereo not drawn) | 200 | 200 | 500 | 600 | – | – | – | 10000 | – | – | – | – | – |
| CSc1cccc(N2C(=O)c3cc4ccc(C(F)(F)F)cc4n3CC2(C)C(=O)NC2CCCC2)c1 (stereo not drawn) | 50 | 170 | 80 | 200 | – | – | – | > 50000 | – | – | – | – | – |
| CC(F)(F)c1cccc(N2C(=O)CN(c3cccc(C(F)(F)F)c3)CC2C(=O)NC2CCCC2)c1 (stereo not drawn) | 400 | 800 | 1900 | 2200 | – | – | – | 9000 | – | – | – | – | – |
| CSc1cccc(N2C(=O)CN(c3cccnc3)CC2C(=O)NC2CCCC2)c1 (stereo not drawn) | 31000 | 45000 | > 50000 | > 50000 | – | – | – | > 50000 | – | – | – | – | – |
| CSc1cccc(N(CC(=O)NC2CCCC2)C(=O)c2cc3ccc(C(F)(F)F)cc3n2C)c1 | 2300 | 1500 | 3100 | 3000 | – | – | – | 6300 | – | – | – | – | – |
| COc1ccc(-c2csc(NC(=O)c3cc(C(C)(C)C)cc(C(C)(C)C)c3)n2)cc1 | – | – | – | – | – | – | – | – | 1000 to 4100 | 1000 to 4100 | 1000 to 4100 | 1000 to 4100 | 1000 to 4100 |
| O=C(NC1CCCC1)C1CN(c2cccc(C(F)(F)F)c2)CC(=O)N1c1cccc(OC(F)(F)F)c1 (stereo not drawn) | 400 | 700 | 1100 | 1700 | – | – | – | 8000 | – | – | – | – | – |
| CSc1cccc(N2C(=O)CN(c3cncc(C(F)(F)F)c3)CC2C(=O)NC2CCCC2)c1 (stereo not drawn) | 13000 | 28000 | > 50000 | > 50000 | – | – | – | > 50000 | – | – | – | – | – |
| CSc1cccc(N2C(=O)c3cc4ccc(C(F)(F)F)cc4n3C[C@@]2(C)C(=O)NC2CCCC2)c1 | 10 | 50 | 40 | 90 | > 735 | > 4.5 | < 4 | 20000 | – | – | – | – | – |
| CSc1cccc(NC(=O)c2cc3ccc(C(F)(F)F)cc3n2CC(C)C(=O)NC2CCCC2)c1 (stereo not drawn) | 3900 | 2000 | 5100 | 10000 | – | – | – | 7100 | – | – | – | – | – |
| CSc1cncc(N2C(=O)CN(c3cccc(C(F)(F)F)c3)CC2C(=O)NC2CCCC2)c1 (stereo not drawn) | 200 | 600 | 400 | 1200 | – | – | 40 (≈ 19.1 µg/mL) | 26000 | – | – | – | – | – |
| CSc1cccc(N(C(=O)c2cc3ccc(C(F)(F)F)cc3[nH]2)[C@H](C)C(=O)NC2CCCC2)c1 | 2500 | 2600 | 5300 | 3600 | – | – | – | 15000 | – | – | – | – | – |
| CSc1cccc(N2C(=O)c3cc4ccc(C(F)(F)F)cc4n3C[C@]2(C)C(=O)NC2CCCC2)c1 | 600 | 1500 | 5500 | 5100 | – | – | – | 20000 | – | – | – | – | – |
| CSc1cccc(N2C(=O)CN(c3ccccc3)CC2(C)C(=O)NC2CCCC2)c1 (stereo not drawn) | 1300 | 2500 | 4000 | 11000 | – | – | – | > 50000 | – | – | – | – | – |
| CSc1cccc(N(C(=O)c2cc3ccc(C(F)(F)F)cc3[nH]2)[C@@H](C)C(=O)NC2CCCC2)c1 | 2000 | 1500 | 2200 | 1700 | – | – | – | 7100 | – | – | – | – | – |
| CSc1cccc(N2C(=O)CN(c3cccc(C(F)(F)F)c3)CC2C(=O)NC2CCCC2)c1 (stereo not drawn) | 300 | 600 | 700 | 1000 | – | – | 4 (≈ 1.91 µg/mL) | 20000 | – | – | – | – | – |
| CSc1cccc(N2C(=O)c3ccc(-c4ccco4)n3CC2(C)C(=O)NC2CCCC2)c1 (stereo not drawn) | 90 | 420 | 320 | 500 | – | – | – | > 50000 | – | – | – | – | – |
| CSc1cccc(N2C(=O)CN(c3cc(C(F)(F)F)ccc3C)CC2C(=O)NC2CCCC2)c1 (stereo not drawn) | 6500 | 5800 | 6100 | 8000 | – | – | – | 10000 | – | – | – | – | – |

Second part, led by results:

| EC50 (dengue virus type 3 [1]) [nM] | EC50 (dengue virus type 4 [3]) [nM] | EC50 (dengue virus type 1 [4]) [nM] | EC50 (dengue virus type 2 [5]) [nM] | microsomal CLint [6] [µL/min/mg] | logD [7] | solubility [8] [µM] | SMILES | CC50 [2] [nM] | EC50 (dengue virus type 2 [9]) [nM] | EC50 (dengue virus type 3 [10]) [nM] | EC50 (dengue virus type 1 [11]) [nM] | EC50 (dengue virus type 2 [12]) [nM] | EC50 (dengue virus type 4 [13]) [nM] |
| --- | --- | --- | --- | --- | --- | --- | --- | --- | --- | --- | --- | --- | --- |
| 30 | 30 | 70 | 100 | 59 | > 4.5 | < 4 | O=C(NC1CCCC1)[C@@H]1CN(c2ccc(C(F)(F)F)cc2)CC(=O)N1c1ccc2ccsc2c1 | 20000 | – | – | – | – | – |
| 300 | 400 | 500 | 900 | – | – | – | O=C(NC1CCCC1)C1CN(c2ccc(C(F)(F)F)cc2)CC(=O)N1c1cnc2ccsc2c1 (stereo not drawn) | 30000 | – | – | – | – | – |
| 50 | 200 | 1800 | 1000 | – | – | – | O=C(NC1CCC1)C1CN(c2ccccc2)CC(=O)N1c1ccc2ccsc2c1 (stereo not drawn) | > 50000 | – | – | – | – | – |
| 170 | 900 | 2400 | 1500 | – | – | – | O=C(NC1CCCC1)C1CN(c2ccccc2)CC(=O)N1c1ccc2ccsc2c1 (stereo not drawn) | > 50000 | – | – | – | – | – |
| 500 | 1700 | 5600 | 2700 | – | – | – | O=C(Nc1cccnc1)C1CN(c2ccccc2)CC(=O)N1c1ccc2ccsc2c1 (stereo not drawn) | > 50000 | – | – | – | – | – |
| 130 | 1900 | 2000 | 1500 | – | – | – | NC(=O)c1cccc(NC(=O)C2CN(c3ccccc3)CC(=O)N2c2ccc3ccsc3c2)c1 (stereo not drawn) | > 50000 | – | – | – | – | – |
| 2600 | 2600 | 6900 | 5700 | – | – | – | O=C(NC1CCCC1)[C@H]1CN(c2ccc(C(F)(F)F)cc2)CC(=O)N1c1ccc2ccsc2c1 | 10000 | – | – | – | – | – |
| 90 | 1200 | 2800 | 2000 | – | – | – | N#Cc1cccc(NC(=O)C2CN(c3ccccc3)CC(=O)N2c2ccc3ccsc3c2)c1 (stereo not drawn) | > 50000 | – | – | – | – | – |
| 2200 | 6300 | 7100 | 10000 | – | – | – | CC(=O)c1cccc(N2C(=O)CN(c3cccc(C(F)(F)F)c3)CC2C(=O)NC2CCCC2)c1 (stereo not drawn) | 40000 | – | – | – | – | – |
| 400 | 500 | 800 | 1000 | – | – | – | O=C(NC1CCCC1)C1CN(c2ccc(C(F)(F)F)cc2)CC(=O)N1c1ccc2ccoc2c1 (stereo not drawn) | 20000 | – | – | – | – | – |
| 200 | 600 | 6200 | 2200 | – | – | – | O=C(NCC1CC1)C1CN(c2ccccc2)CC(=O)N1c1ccc2ccsc2c1 (stereo not drawn) | > 50000 | – | – | – | – | – |
| 800 | 2000 | 2000 | 11000 | – | – | – | CSc1cccc(N2C(=O)CN(c3ccccc3)CC2C(=O)NC2CCCC2)c1 (stereo not drawn) | > 50000 | – | – | – | – | – |
| 80 | 100 | 200 | 300 | – | – | – | O=C(NC1CCCC1)C1CN(c2ccc(C(F)(F)F)cc2)CC(=O)N1c1ccc2ccsc2c1 (stereo not drawn) | 10000 | – | – | – | – | – |
| 1700 | 2500 | 4100 | 7400 | – | – | – | CSc1cccc(N2C(=O)CN(c3cccc(C#N)c3)CC2C(=O)NC2CCCC2)c1 (stereo not drawn) | > 50000 | – | – | – | – | – |
| 1600 | 2400 | 2900 | 5400 | – | – | – | COc1cccc(N2CC(=O)N(c3cccc(SC)c3)C(C(=O)NC3CCCC3)C2)c1 (stereo not drawn) | > 50000 | – | – | – | – | – |
